{"source": "patent US7998937B2", "about": "“Flavonoid compound having an antiviral activity” (Korea Research Institute of Bioscience and Biotechnology, priority 2005, dated 2011)", "key": {"[1]": {"test_system": "porcine transmissible gastroenteritis virus (TGEV)", "test": "Anti-coronavirus inhibitory activity against TGEV in ST cells", "assay_type": "cell-based", "settings": "48 hours", "method": "(§1) Antiviral activity of quercetin-7-rhamnoside against porcine transmissible gastroenteritis virus (TGEV) and porcine respiratory coronavirus (PRCV), another kind of coronaviruses, was evaluated. ST cells were cultured on a 96-well microplate until the bottom of each well was completely covered with cells. Remaining culture medium was completely removed and each well was washed twice with a phosphate buffer. TGEV or PRCV solution adjusted to a concentration of TCID50 was added to each well. Each of quercetin-7-rhamnoside, conventional antiviral agents purchased from Sigma-ribavirin, lamivudine, azidovudine, acycloguanine and glycyrrhizhin-dissolved in dimethyl sulfoxide was added to each well to a final concentration of 0.1-100 μg/mL. […] Similarly to the aforesaid evaluation of antiviral inhibitory activity against PEDV, c ells treated with DMSO only and those treated with both DMSO and TGEV or both DMSO and PRCV were used as control groups."}, "[2]": {"test_system": "porcine respiratory coronavirus (PRCV)", "test": "Anti-coronavirus inhibitory activity against PRCV in ST cells", "assay_type": "cell-based", "settings": "48 hours", "method": "as §1"}, "[3]": {"test_system": "influenza type A (H1N1/WS/33) virus", "test": "Antiviral activity against influenza type A virus in MDCK cells (SRB)", "assay_type": "cell-based, influenza virus type A (H1N1; WS/33 strain)", "settings": "10 μg/mL, influenza A H1N1/WS/33 in MDCK cells, 48 hours, repeated 3 times", "method": "In order to evaluate the inhibitory activity of quercetin-7-rhamnoside against influenza virus, the following in vitro test was performed using MDCK cells derived from dog kidney.\nInhibitory activity of quercetin-7-rhamnoside against viral proliferation was measured by the method proposed by Kwon Dur-Han, et al. (Korean Patent Application No. 2004-101863). Inhibitory activity against influenza virus type A (H1N1; WS/33 strain) was measured. MDCK cells were cultured on a 96-well microplate until the bottom of each well was completely covered with cells. Remaining culture medium was completely removed and each well was washed twice with a phosphate buffer. Each of quercetin-7-rhamnoside; conventional antiviral agents purchased from Sigma-ribavirin and amantadine; oseltamivir (trade name: Tamiflu) purchased from Roche; and zanamivir (trade name: Relenza) purchased from Glaxo Wellcome; dissolved in dimethyl sulfoxide was added to each well to a final concentration of 10 μg/mL. […] After adding 100 μL of 70% acetone, each well was kept at −20° C. for 1 hour. After drying in a desiccator, 100 μL of 0.4% (w/v) SRB (sulforhodamine B) solution dissolved in 1% (v/v) acetic acid was added. After 30 minutes' staining, the SRB staining solution not bound to the cells was washed off with 1% (v/v) acetic acid for 4 times. After drying, 100 μL of 10 mM Tris solution (pH 10.5) was added to each well to dissolve the stained substance at the bottom of the well. Light absorbance was measured at 562 nm to evaluate the antiviral activity. As control group, viability of cells treated with DMSO only was compared with those treated with both DMSO and virus. Each test was repeated 3 times."}, "[4]": {"test_system": "influenza type B (B/Lee/40) virus", "test": "Inhibitory activity against influenza type B virus in MDCK cells (SRB)", "assay_type": "cell-based", "settings": "10 μg/mL, influenza B/Lee/40 in MDCK cells, 48 hours, repeated 3 times"}, "rotavirus (strain: OSU)": {"test_system": "rotavirus (strain: OSU)", "test": "Inhibitory activity against rotavirus in MA104 cells (SRB)", "assay_type": "cell-based", "settings": "10 μg/mL, rotavirus OSU in MA104 cells, 48 hours, repeated 2 times", "method": "(§2) In order to evaluate the inhibitory activity of quercetin-7-rhamnoside against rota virus, the following in vitro test was performed using MA014 cells derived from pig kidney. Inhibitory activity of quercetin-7-rhamnoside against viral proliferation was measured by the method proposed by Kwon Dur-Han, et al. (Korean Patent Publication No. 2004-101863). Inhibitory activity against rotavirus (strain: OSU) was measured. MA104 cells were cultured on a 96-well microplate until the bottom of each well was completely covered with cells. Remaining culture medium was removed and each well was washed twice with a phosphate buffer. A rota virus solution adjusted to a concentration of TCID 50 was added to each well. […] After 48 hours, the MA104 cells were observed under a microscope. After adding 100 μL of 70% acetone, each well was kept at −20° C. for 1 hour. After drying in a desiccator, 100 μL of 0.4% (w/v) SRB (sulforhodamine B) solution dissolved in 1% (v/v) acetic acid was added. After 30 minutes of staining, the SRB solution not bound to the cells was washed off with 1% (v/v) acetic acid for 4 times. After drying, 100 μL of 10 mM Tris solution (pH 10.5) was added to each well to dissolve the stained substance at the bottom of the well. Light absorbance was measured at 562 nm to evaluate the antiviral activity. As control group, viability of cells treated with DMSO only was compared with those treated with both DMSO and virus. Each test was repeated for 2 times."}, "[5]": {"test_system": "rhinovirus (strain: rhinovirus 2)", "test": "Inhibitory activity against rhinovirus in HeLa cells (SRB)", "assay_type": "cell-based", "settings": "10 μg/mL, rhinovirus 2 in HeLa cells, 48 hours, repeated 3 times", "method": "as §2, with “against rhino” for “against rota”, “using HeLa, one of human cervical cancer cell lines, cells.” for “using MA014 cells derived from pig kidney.”, “2004-101863). […] HeLa” for “2004-101863). Inhibitory activity against rotavirus (strain: OSU) was measured. MA104”, “A rhino” for “A rota”, “the HeLa” for “the MA104”, “for 3” for “for 2”"}, "mice": {"test_system": "mice", "test": "Toxicity test in mice", "assay_type": "in vivo", "settings": "10 g/kg, dissolved in DMSO and diluted with water, observed for 7 days", "method": "Toxicity test was performed as follows for the quercetin-7-rhamnoside of the present invention.\nQuercetin-7-rhamnoside dissolved in dimethyl sulfoxide (DMSO) and diluted with water was administered to mice (10 per each group) at a dosage of 10 g/kg."}, "ST cells": {"test_system": "ST cells", "test": "Cytotoxicity (CC50) in ST cells", "settings": "0.1-100 μg/mL, 48 hours"}, "Vero cells": {"test_system": "Vero cells", "test": "Cytotoxicity (CC50) in Vero cells", "settings": "0.1-100 μg/mL, 48 hours"}, "[6]": {"test_system": "porcine epidemic diarrhea virus (PEDV)", "test": "Antiviral activity against PEDV in Vero cells (SRB staining)", "settings": "PEDV in Vero cells, maximum dosage 100 μg/mL, 48 hours"}}}
{"smiles": "C[C@@H]1O[C@@H](Oc2cc(O)c3c(=O)c(O)c(-c4ccc(O)c(O)c4)oc3c2)[C@H](O)[C@H](O)[C@H]1O", "note": "[Quercetin-7-rhamnoside, quercetin-7-rhamnoside]", "values": [{"measurement": "IC50", "setting": "[1]", "result": "(63.3 μg/mL)]"}, {"measurement": "IC50", "setting": "[2]", "result": "(59.8 μg/mL)]"}, {"measurement": "Inhibitory activity (%) (Mean ± S.D.)", "setting": "[3]", "result": 66.03, "unit": "%"}, {"measurement": "Inhibitory activity (%) (Mean ± S.D.)", "setting": "[4]", "result": 92.66, "unit": "%"}, {"measurement": "Inhibitory activity (%) (Mean ± S.D.)", "setting": "rotavirus (strain: OSU)", "result": 77.37, "unit": "%"}, {"measurement": "Inhibitory activity (%) (Mean ± S.D.)", "setting": "[5]", "result": 77.89, "unit": "%"}, {"measurement": "deaths after administration", "setting": "mice", "result": "none of them were found dead"}, {"measurement": "CC50", "setting": "ST cells", "result": "> 100", "unit": "µg/mL"}, {"measurement": "CC50 (concentration required for 50% cytotoxicity)", "setting": "Vero cells", "result": "> 100", "unit": "µg/mL"}, {"measurement": "IC50 (concentration required for 50% inhibition of viruses)", "setting": "[6]", "result": "(0.014 μg/mL)]"}]}
